This assay concerns L1210 leukemia ip in BDF1 mice, survival T/C. As to the kind of experiment: NCI In Vivo Anticancer Drug Screen. Data for tumor model L1210 Leukemia (intraperitoneal) in B6D2F1 (BDF1) mice. The conditions noted are these: endpoint: mean survival time, higher = longer survival. The procedure, abridged: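 Transplanted-tumor mice were given test agent; controls received vehicle only. Survival readings from the two groups were divided (treated over control).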

Setting [1] is: dose: 100.0 mg/kg/injection, schedule: Q01DX009 (ip), vehicle: Klucel (hydroxypropylcellulose) (HPC).
[2] abbreviates: dose: 100.0 mg/kg/injection, schedule: Q04DX002 (ip), vehicle: Klucel (hydroxypropylcellulose) (HPC).
Setting [3] is: dose: 100.0 mg/kg/injection, schedule: Q04DX003 (ip), vehicle: Klucel (hydroxypropylcellulose) (HPC).
Where [4] appears, read: dose: 200.0 mg/kg/injection, schedule: Q01DX009 (ip), vehicle: Klucel (hydroxypropylcellulose) (HPC).
Setting [5] is: dose: 200.0 mg/kg/injection, schedule: Q04DX002 (ip), vehicle: Klucel (hydroxypropylcellulose) (HPC).
[6] abbreviates: dose: 200.0 mg/kg/injection, schedule: Q04DX003 (ip), vehicle: Klucel (hydroxypropylcellulose) (HPC).
Where [7] appears, read: dose: 400.0 mg/kg/injection, schedule: Q01DX009 (ip), vehicle: Klucel (hydroxypropylcellulose) (HPC).
[8] abbreviates: dose: 400.0 mg/kg/injection, schedule: Q04DX003 (ip), vehicle: Klucel (hydroxypropylcellulose) (HPC).

The results in this text go back to PubChem BioAssay AID248 (DTP/NCI, 2004).

Where “and” joins values, the source holds several entries; their conditions need not be identical. Equal values may be shown once. Inconclusive results and toxic doses are left out.

For `O=C(Nc1ccc(C2=NCCN2)cc1)c1ccc(C(=O)Nc2ccc(C3=NCCN3)cc2)c(NC(=O)c2ccc(C(=O)Nc3cc(C(=O)Nc4ccc(C5=NCCN5)cc4)ccc3C(=O)Nc3ccc(C4=NCCN4)cc3)cc2)c1`, the T/C is 120 % of control (dose: 2.5 mg/kg/injection, schedule: Q01DX Z (ip), vehicle: methylcellulose (MC)); 104 % of control (dose: 3.1 mg/kg/injection, schedule: Q01DX Z (ip), vehicle: carboxymethylcellulose (CMC)); 107 % of control (dose: 6.2 mg/kg/injection, schedule: Q01DX Z (ip), vehicle: carboxymethylcellulose (CMC)); 108 % of control (dose: 6.25 mg/kg/injection, schedule: Q#A X Z (ip), vehicle: carboxymethylcellulose (CMC)); 157 % of control (dose: 10.0 mg/kg/injection, schedule: Q01DX Z (ip), vehicle: methylcellulose (MC)); 119 % of control (dose: 12.5 mg/kg/injection, schedule: Q01DX Z (ip), vehicle: carboxymethylcellulose (CMC)). Besides, the T/C by setting is: (dose: 12.5 mg/kg/injection, schedule: Q01DX Z (sc), vehicle: carboxymethylcellulose (CMC)) 98 % of control; (dose: 12.5 mg/kg/injection, schedule: Q#A X Z (ip), vehicle: carboxymethylcellulose (CMC)) 192 % of control; (dose: 22.0 mg/kg/injection, schedule: Q01DX015 (ip), vehicle: carboxymethylcellulose (CMC)) 116 % of control; (dose: 25.0 mg/kg/injection, schedule: Q01DX004 (im), vehicle: olive oil, sesame oil, peanut oil) 97 % of control; (dose: 25.0 mg/kg/injection, schedule: Q01DX Z (ip), vehicle: carboxymethylcellulose (CMC)) 175 % of control; (dose: 25.0 mg/kg/injection, schedule: Q01DX Z (sc), vehicle: carboxymethylcellulose (CMC)) 122 % of control. Also, the T/C (dose: 25.0 mg/kg/injection, schedule: Q#A X Z (ip), vehicle: carboxymethylcellulose (CMC)) is 289 % of control; the T/C (dose: 33.0 mg/kg/injection, schedule: Q01DX015 (ip), vehicle: carboxymethylcellulose (CMC)) was 106 % of control; the T/C (dose: 50.0 mg/kg/injection, schedule: Q01DX004 (im), vehicle: olive oil, sesame oil, peanut oil) is 95 % of control; the T/C (dose: 50.0 mg/kg/injection, schedule: Q01DX015 (ip), vehicle: carboxymethylcellulose (CMC)) is 110 % of control; the T/C (dose: 50.0 mg/kg/injection, schedule: Q01DX Z (ip), vehicle: carboxymethylcellulose (CMC)) was 302 % of control; the T/C (dose: 50.0 mg/kg/injection, schedule: Q01DX Z (oral), vehicle: carboxymethylcellulose (CMC)) is 95 % of control. In addition, the T/C runs as follows: (dose: 50.0 mg/kg/injection, schedule: Q01DX Z (sc), vehicle: carboxymethylcellulose (CMC)) 201 % of control; (dose: 50.0 mg/kg/injection, schedule: Q#A X Z (ip), vehicle: carboxymethylcellulose (CMC)) 194 % of control; (dose: 60.0 mg/kg/injection, schedule: Q01DX Z (ip), vehicle: methylcellulose (MC)) 158 % of control and 359 % of control; (dose: 62.5 mg/kg/injection, schedule: Q## X010 (oral), vehicle: saline) 98 % of control; (dose: 75.0 mg/kg/injection, schedule: Q03DX Z (ip), vehicle: carboxymethylcellulose (CMC)) 206 % of control; (dose: 100.0 mg/kg/injection, schedule: Q01DX004 (im), vehicle: olive oil, sesame oil, peanut oil) 95 % of control. In addition, the T/C (dose: 100.0 mg/kg/injection, schedule: Q01DX Z (ip), vehicle: carboxymethylcellulose (CMC)) is 195 % of control; the T/C (dose: 100.0 mg/kg/injection, schedule: Q01DX Z (oral), vehicle: carboxymethylcellulose (CMC)) is 93 % of control; the T/C (dose: 100.0 mg/kg/injection, schedule: Q01DX Z (sc), vehicle: carboxymethylcellulose (CMC)) is 208 % of control; the T/C (dose: 112.5 mg/kg/injection, schedule: Q01DX015 (ip), vehicle: carboxymethylcellulose (CMC)) was 169 % of control; the T/C (dose: 120.0 mg/kg/injection, schedule: Q01DX Z (ip), vehicle: methylcellulose (MC)) was 314 % of control; the T/C (dose: 150.0 mg/kg/injection, schedule: Q03DX Z (ip), vehicle: carboxymethylcellulose (CMC)) is 284 % of control. Further, the T/C reads like this: (dose: 175.0 mg/kg/injection, schedule: Q07DX Z (ip), vehicle: carboxymethylcellulose (CMC)) 293 % of control; (dose: 192.0 mg/kg/injection, schedule: Q01DX001 (ip), vehicle: carboxymethylcellulose (CMC)) 97 % of control; (dose: 192.0 mg/kg/injection, schedule: Q01DX001 (ip), vehicle: other) 100 % of control; (dose: 200.0 mg/kg/injection, schedule: Q01DX004 (im), vehicle: olive oil, sesame oil, peanut oil) 98 % of control; (dose: 200.0 mg/kg/injection, schedule: Q01DX Z (oral), vehicle: carboxymethylcellulose (CMC)) 97 % of control; (dose: 200.0 mg/kg/injection, schedule: Q01DX Z (sc), vehicle: carboxymethylcellulose (CMC)) 227 % of control. The T/C runs as follows: (dose: 240.0 mg/kg/injection, schedule: Q01DX Z (ip), vehicle: methylcellulose (MC)) 210 % of control; (dose: 250.0 mg/kg/injection, schedule: Q## X010 (oral), vehicle: saline) 101 % of control; (dose: 281.0 mg/kg/injection, schedule: Q01DX001 (ip), vehicle: carboxymethylcellulose (CMC)) 97 % of control; (dose: 281.0 mg/kg/injection, schedule: Q01DX001 (ip), vehicle: other) 103 % of control; (dose: 300.0 mg/kg/injection, schedule: Q03DX Z (ip), vehicle: carboxymethylcellulose (CMC)) 190 % of control; (dose: 350.0 mg/kg/injection, schedule: Q07DX Z (ip), vehicle: carboxymethylcellulose (CMC)) 278 % of control. The T/C is 104 % of control (dose: 400.0 mg/kg/injection, schedule: Q01DX Z (oral), vehicle: carboxymethylcellulose (CMC)); 95 % of control (dose: 422.0 mg/kg/injection, schedule: Q01DX001 (ip), vehicle: carboxymethylcellulose (CMC)); 106 % of control (dose: 422.0 mg/kg/injection, schedule: Q01DX001 (ip), vehicle: other); 104 % of control (dose: 500.0 mg/kg/injection, schedule: Q## X010 (oral), vehicle: saline); 104 % of control (dose: 640.0 mg/kg/injection, schedule: Q01DX001 (ip), vehicle: carboxymethylcellulose (CMC)); 104 % of control (dose: 640.0 mg/kg/injection, schedule: Q01DX001 (ip), vehicle: other). In addition, the T/C (dose: 700.0 mg/kg/injection, schedule: Q07DX Z (ip), vehicle: carboxymethylcellulose (CMC)) was 185 % of control; the T/C (dose: 800.0 mg/kg/injection, schedule: Q01DX Z (oral), vehicle: carboxymethylcellulose (CMC)) is 89 % of control; the T/C (dose: 960.0 mg/kg/injection, schedule: Q01DX001 (ip), vehicle: carboxymethylcellulose (CMC)) is 106 % of control and 120 % of control; the T/C (dose: 1440.0 mg/kg/injection, schedule: Q01DX001 (ip), vehicle: carboxymethylcellulose (CMC)) is 116 % of control; the T/C (dose: 1440.0 mg/kg/injection, schedule: Q01DX001 (ip), vehicle: other) is 120 % of control; the T/C (dose: 2160.0 mg/kg/injection, schedule: Q01DX001 (ip), vehicle: carboxymethylcellulose (CMC)) is 121 % of control. The T/C (dose: 3240.0 mg/kg/injection, schedule: Q01DX001 (ip), vehicle: carboxymethylcellulose (CMC)) was 123 % of control and the T/C (dose: 3240.0 mg/kg/injection, schedule: Q01DX001 (ip), vehicle: other) is 191 % of control.

Regarding `CC(NC(=O)OCc1ccccc1)C(=O)O` (centres undefined), the T/C by setting is: under setting [1], 97 % of control; under setting [2], 95 % of control; under setting [3], 100 % of control; under setting [4], 90 % of control; under setting [5], 94 % of control; under setting [6], 100 % of control. Moreover, the T/C runs as follows: under setting [7], 97 % of control; (dose: 400.0 mg/kg/injection, schedule: Q04DX002 (ip), vehicle: Klucel (hydroxypropylcellulose) (HPC)) 97 % of control; under setting [8], 95 % of control.

`CC(C)N(C(=O)c1ccccc1Cl)c1ccccc1`: the T/C is 92 % of control under setting [1], 103 % of control under setting [4] and 103 % of control under setting [7].

As to `CN(C)Cc1ccccc1COC(=O)c1cccc(Br)c1`, the T/C under setting [2] was 98 % of control and the T/C under setting [5] is 102 % of control.

As for `CC(C)=NNC(=O)COCC(=O)NN=C(C)C`, the T/C was 97 % of control under setting [1], 112 % of control under setting [4] and 109 % of control under setting [7].

`CCOC(=O)c1ccc(O)c(NC(C)=O)c1`: the T/C was 95 % of control under setting [1]; 95 % of control under setting [3]; 94 % of control under setting [4]; 100 % of control under setting [6]; 94 % of control under setting [7]; 91 % of control under setting [8].
